Ten compounds from patent US20140023611A1 (priority 2010, published 2014) can be followed below.

The target in this experiment is T1, rat NaP2b (SLC34A2) (Rattus norvegicus, UniProt Q9JJ09).
T1 construct: host or cells: HEK293
T1 sequence (Q9JJ09 1-695): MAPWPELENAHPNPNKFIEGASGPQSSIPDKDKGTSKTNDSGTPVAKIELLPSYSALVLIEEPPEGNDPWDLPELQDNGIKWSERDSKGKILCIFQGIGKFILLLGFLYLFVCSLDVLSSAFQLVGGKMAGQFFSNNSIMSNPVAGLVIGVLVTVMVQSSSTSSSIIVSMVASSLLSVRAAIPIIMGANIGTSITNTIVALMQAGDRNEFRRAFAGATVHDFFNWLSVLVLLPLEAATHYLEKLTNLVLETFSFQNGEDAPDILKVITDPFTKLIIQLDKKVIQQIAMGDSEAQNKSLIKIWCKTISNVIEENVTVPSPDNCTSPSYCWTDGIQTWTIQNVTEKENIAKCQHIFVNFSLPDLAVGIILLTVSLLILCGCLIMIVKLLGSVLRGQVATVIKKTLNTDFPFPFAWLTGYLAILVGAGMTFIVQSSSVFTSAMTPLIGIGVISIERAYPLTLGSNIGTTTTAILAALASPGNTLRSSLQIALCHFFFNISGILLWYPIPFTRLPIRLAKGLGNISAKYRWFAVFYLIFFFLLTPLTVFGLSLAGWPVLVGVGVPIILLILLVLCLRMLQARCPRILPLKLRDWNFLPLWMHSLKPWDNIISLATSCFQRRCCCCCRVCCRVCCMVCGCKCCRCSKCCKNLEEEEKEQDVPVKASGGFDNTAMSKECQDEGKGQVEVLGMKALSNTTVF
Kind of experiment: Inhibition of NaP2b-mediated Pi (33P) uptake in transfected HEK293 cells, rat NaP2b. Type of experiment: cell-based. To be noted: 33P Pi uptake, 0.1 mM phosphate, value given as pIC50 range. An outline of the steps: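 The cells transiently expressed NaP2b after Lipofectamine transfection. Each compound was run in duplicate over twelve concentrations, 0.1 nM–30 uM.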
For the compound `CC(=O)N1CCN(Cc2cccc(C(=O)Nc3ccc(N4CCCCC4)cc3-c3cc(C(=O)NCc4cccc(C(F)(F)F)c4)ccn3)n2)CC1` [Example 58, 6-((4-Acetylpiperazin-1-yl)methyl)-N-(4-(piperidin-1-yl)-2-(4-((3-(trifluoromethyl)benzyl)carbamoyl)pyridin-2-yl)phenyl)picolinamide], the half-maximal inhibitory concentration (IC50) is 1 to 7.94 µM.

Regarding `CC(=O)N1CCCN(Cc2cccc(C(=O)Nc3ccc(N4CCCCC4)cc3-c3cc(C(=O)NCc4cccc(C(F)(F)F)c4)ccn3)n2)CC1` [Example 59, 6-((4-Acetyl-1,4-diazepan-1-yl)methyl)-N-(4-(piperidin-1-yl)-2-(4-((3-(trifluoromethyl)benzyl)carbamoyl)pyridin-2-yl)phenyl)picolinamide], the IC50 is 1 to 7.94 µM.

In turn, `CC(=O)N1CCN(CCN(C)Cc2cccc(C(=O)Nc3ccc(N4CCCCC4)cc3-c3cc(C(=O)NCc4cccc(C(F)(F)F)c4)ccn3)n2)CC1` [Example 60, 6-(((2-(4-Acetylpiperazin-1-yl)ethyl)(methyl)amino)methyl)-N-(4-(piperidin-1-yl)-2-(4-((3-(trifluoromethyl)benzyl)carbamoyl)pyridin-2-yl)phenyl)picolinamide] gave a half-inhibitory concentration (IC50) of 10 to 31.6 µM.

In turn, `CN1CCN(CCN(C)Cc2cccc(C(=O)Nc3ccc(N4CCCCC4)cc3-c3cc(C(=O)NCc4cccc(C(F)(F)F)c4)ccn3)n2)CC1` [Example 61, 6-((Methyl(2-(4-methylpiperazin-1-yl)ethyl)amino)methyl)-N-(4-(piperidin-1-yl)-2-(4-((3-(trifluoromethyl)benzyl)carbamoyl)pyridin-2-yl)phenyl)picolinamide] had a concentration for half-maximal inhibition (IC50) of 10 to 31.6 µM.

`CN(CCN1CCN(S(C)(=O)=O)CC1)Cc1cccc(C(=O)Nc2ccc(N3CCCCC3)cc2-c2cc(C(=O)NCc3cccc(C(F)(F)F)c3)ccn2)n1` [Example 62, 6-((Methyl(2-(4-(methylsulfonyl)piperazin-1-yl)ethyl)amino)methyl)-N-(4-(piperidin-1-yl)-2-(4-((3-(trifluoromethyl)benzyl)carbamoyl)pyridin-2-yl)phenyl)picolinamide] had an IC50 of 10 to 31.6 µM.

Take `COCCNC(=O)N1CCN(CCN(C)Cc2cccc(C(=O)Nc3ccc(N4CCCCC4)cc3-c3cc(C(=O)NCc4cccc(C(F)(F)F)c4)ccn3)n2)CC1` [Example 63, N-(2-Methoxyethyl)-4-(2-(methyl((6-((4-(piperidin-1-yl)-2-(4-((3-(trifluoromethyl)benzyl)carbamoyl)pyridin-2-yl)phenyl)carbamoyl)pyridin-2-yl)methyl)amino)ethyl)piperazine-1-carboxamide]: the IC50 was 1 to 7.94 µM.

`O=C(NCCOCCO)c1cccc(C(=O)Nc2ccc(N3CCCCC3)cc2-c2cc(NCc3cccc(C(F)(F)F)c3)ncn2)c1` [Example 64, N1-(2-(2-Hydroxyethoxy)ethyl)-N3-(4-(piperidin-1-yl)-2-(6-((3-(trifluoromethyl)benzyl)amino)pyrimidin-4-yl)phenyl)isophthalamide]: the IC50 was 10 to 31.6 µM.

With `O=C(NCCOCCO)c1cccc(C(=O)Nc2ccc(Cl)cc2-c2cc(NCc3cccc(C(F)(F)F)c3)ncn2)c1` [Example 65, N1-(4-Chloro-2-(6-((3-(trifluoromethyl)benzyl)amino)pyrimidin-4-yl)phenyl)-N3-(2-(2-hydroxyethoxy)ethyl)isophthalamide], the IC50 is 10 to 31.6 µM.

`O=C(O)CCSCc1cccc(C(=O)Nc2ccc(Cl)cc2-c2cc(NCc3cccc(C(F)(F)F)c3)ncn2)c1` [Example 66, 3-((3-((4-Chloro-2-(6-((3-(trifluoromethyl)benzyl)amino)pyrimidin-4-yl)phenyl)carbamoyl)benzyl)thio)propanoic acid] showed a half-inhibitory concentration (IC50) of 10 to 31.6 µM.

In turn, `CN(C)CCC#Cc1cccc(C(=O)Nc2ccc(Cl)cc2-c2cc(NCc3cccc(C(F)(F)F)c3)ncn2)c1` [Example 67, N-(4-Chloro-2-(6-(3-(trifluoromethyl)benzylamino)pyrimidin-4-yl)phenyl)-3-(4-(dimethylamino)but-1-ynyl)benzamide 2,2,2-trifluoroacetate] gave an IC50 of 10 to 31.6 µM.

What is called IC50 is the concentration that inhibits the measured activity by half.
